The source of these data is PubChem BioAssay AID2060506 (Molecular Pharmacology Branch, DTP, NCI, 2025).

Several values for one entry are separate records, joined by “and”; a condition that tells them apart may be missing. Equal entries are not always repeated. Some results are limits rather than exact numbers.

In this test the test system is 598228-144-R-J1-PDC complex spheroid viability. As to the kind of experiment: Anticancer human tumor 598228-144-R-J1-PDC patient-derived serous endometrial adenocarcinoma cell line growth inhibition [GQUAD]. The following applies: for viability, T/C: stronger effect = lower value. The source says:
DNA G-quadruplex Stabilizer Agents in Combinations in Complex Spheroids
A high-throughput screen of multi-cell type tumor spheroids was designed to identify active combinations of DNA G-quadruplex stabilizer agents and targeted small molecules. Complex spheroids include a stromal component modeled by human endothelial cells (HUVEC) and fibroblasts modeled by human mesenchymal stem cells (MSCs). The concentration ranges selected for each drug and investigational agent were based upon clinically achievable concentrations if the clinical Cmax of the agent was known.
Compounds. The drugs and investigational agents: pidnarulex (CX-5461; NSC782164), APTO-253 (NSC789042), BRACO-19 (NSC847499), peposertib (NSC802822), ceralasertib (NSC780249), elimusertib (NSC800525), camonsertib (NSC841442), AZD-1390 (NSC803789), olaparib (NSC753686), talazoparib (NSC767125), ART-558 (NSC835418), sotorasib (NSC818433), MRTX-1133 (NSC836407), SN-38 (NSC673596), topotecan (NSC609699), etoposide (NSC141540), doxorubicin (NSC123127), gemcitabine (NSC613327), 5-fluorouracil (NSC19893), paclitaxel (NSC125973), vemurafenib (NSC761431), panobinostat (NSC761190), R-306465 (JNJ-16241199; NSC773264), adavosertib (NSC754352), TP-3654 (NSC805149), carboplatin (NSC241240), KSQ-4279 (NSC840948), and staurosporine (NSC755774) were obtained from the National Cancer Institute (NCI) Developmental Therapeutics Program Chemical Repository (34). The FDA-approved anticancer drug set is available from the NCI Developmental Therapeutics Program. […] The stock solutions were prepared in dimethyl sulfoxide (DMSO, Sigma-Aldrich, St. Louis, MO, cat. D2650) at 800-fold the tested concentration and stored at -70 degrees C prior to their use. All drugs and investigational agents were tested over a range starting from a high concentration at or near the clinical Cmax and decreasing in half-log increments. If the clinical Cmax for an agent had not been determined, the highest concentration tested was 10 microM.
2.3 Cell Culture. All cells were maintained in an incubator at 37 degrees C and 5% CO2 with 95% humidity. The PDC lines were cultured according to standard operating procedures established by the NCI PDMR. All PDCs were thawed and cultured in Matrigel-coated flasks prepared with a working solution of 1X Ham's F-12 nutrient mix, without supplementation (Invitrogen, cat. 11765054), 100 U/mL penicillin-streptomycin (Invitrogen, cat. 15140122), and 2.5% Matrigel (Corning Inc., cat. 354248) for the first three passages. The 857933-349-R-J2-PDC line was cultured in 6C/Colon 1B media, which includes advanced DMEM/F-12 (Thermo Fisher Scientific, cat. 12634028), 10 mM HEPES (Thermo Fisher Scientific, cat. 15630080), 1X GlutaMAX supplement (Thermo Fisher Scientific, cat. 35050061), 0.1 mg/mL primocin (InvivoGen, cat. ant-pm-2), 10% defined fetal bovine serum, heat inactivated (HyClone Laboratories Inc., cat. SH30070.03HI), 50% L-WRN conditioned media (ATCC, cat. CRL-3276), 1.25 mM N-Acetyl-L-cysteine (Sigma-Aldrich, cat. A9165), 10 mM nicotinamide (Sigma-Aldrich, cat. N0636), 1X B-27 supplement (Thermo Fisher Scientific, cat. 17504044), 1X N-2 supplement (Thermo Fisher Scientific, cat. 17502048), 10 microM Y-27632 dihydrochloride (Tocris Bioscience, cat. 1254), and 50 ng/mL human EGF recombinant protein (Thermo Fisher Scientific, cat. PHG0311). The 485176-168-R4-J1-PDC line was cultured in Panc media, which includes all 6C/Colon 1B media components plus 100 ng/mL human FGF-10 (Thermo Fisher Scientific, cat. 100-26), 500 nM SB-431542 (Selleckchem, cat. S1067), and gastrin (Tocris, cat. 3006).
[…]
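Also: spheroids exposed to the agents for one week before reading.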
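For viability, T/C in this document: percent of vehicle DMSO control viability so 100% = untreated growth.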

As to `C=CCn1c(=O)c2cnc(Nc3ccc(N4CCN(C)CC4)cc3)nc2n1-c1cccc(C(C)(C)O)n1`, the viability, T/C (usually the result in the treated group divided by that in the control group, in per cent) was 105% and 84.5% and 97.9% (compound 0.0316 µM); 81.6% and 94.9% and 101% (compound 0.1 µM); 83% and 52.6% and 63% (compound 0.316 µM); 46.9% and 51.9% and 42% (compound 1 µM); 50.9% and 46.4% and 62.5% (compound 3.16 µM); 45.4% and 49.7% and 66.2% (compound 10 µM).

Regarding `CC(C)(O)C1CCC(Nc2ccc3ncc(-c4cccc(C(F)(F)F)c4)n3n2)CC1` (configuration not stated), the viability, T/C was 112% and 97.2% and 85.6% (compound 0.0316 µM); 104% and 82.3% and 99.3% (compound 0.1 µM); 99.6% and 94.8% and 96.7% (compound 0.316 µM); 94% and 78.5% and 75.3% (compound 1 µM); 28% and 26.1% and 20.6% (compound 3.16 µM); 31.7% and 25.3% and 24.3% (compound 10 µM). Moreover, the concentration for half-maximal inhibition (IC50) (commonly the point on the concentration scale where inhibition reaches its midpoint) (curve of compound) was 2200 nM and 1870 nM and 1730 nM.

`COc1ncnc(C2CC2)c1-c1ncc2cnn(Cc3ccc(-c4nc(C(F)(F)F)cn4C(C)C)cc3)c2n1`: the viability, T/C runs as follows: (compound 0.0316 µM) 112% and 120% and 109%; (compound 0.1 µM) 99.5% and 93.3% and 79.8%; (compound 0.316 µM) 107% and 103% and 102%; (compound 1 µM) 106% and 104% and 102%; (compound 3.16 µM) 97.8% and 112% and 113%; (compound 10 µM) 105% and 117% and 89%. Besides, the IC50 (curve of compound) was greater than 10000 nM.

On to `Cc1cnc(CNC(=O)c2c(=O)c3ccc(N4CCCN(C)CC4)nc3n3c2sc2ccccc23)cn1`, for which the viability, T/C (compound 0.1 µM) is 73.5% [middle of 12 runs]; the viability, T/C (compound 1 µM) was 65.9% [middle of 12 runs]; the viability, T/C (compound 3.16 µM) was 56.4% [middle of 12 runs].

As to `O=C(NO)c1cnc(N2CCN(S(=O)(=O)c3ccc4ccccc4c3)CC2)nc1`, the viability, T/C is 112% and 98.7% and 110% (compound 0.0316 µM); 49.4% and 40.7% and 59.1% (compound 0.1 µM); 26.3% and 24.7% and 34% (compound 0.316 µM); 0.49% and 0.43% and 0.75% (compound 1 µM); 0.37% and 0.43% and 0.25% (compound 3.16 µM); 0.35% and 0.28% and 0.23% (compound 10 µM). Also, the IC50 (curve of compound) was 106 nM and 88 nM and 148 nM.

Take `CC(C)n1c(=O)n(C)c2cnc3cc(F)c(-c4ccc(OCCCN5CCCCC5)nc4)cc3c21` + CN(C)c1ccc(Nc2c3ccc(NC(=O)CCN4CCCC4)cc3nc3cc(NC(=O)CCN4CCCC4)ccc23)cc1: the IC50 is 9920 nM (curve of first compound, second compound 0.0316 µM); greater than 10000 nM (curve of first compound, second compound 0.1 µM); greater than 10000 nM (curve of first compound, second compound 0.316 µM); 8290 nM (curve of first compound, second compound 1 µM); 6870 nM (curve of first compound, second compound 3.16 µM); 217 nM (curve of first compound, second compound 10 µM). The viability, T/C is 112% (second compound 0.0316 µM, first compound 0.0316 µM); 79.6% (second compound 0.0316 µM, first compound 0.1 µM); 102% (second compound 0.0316 µM, first compound 0.316 µM); 93% (second compound 0.0316 µM, first compound 1 µM); 78.1% (second compound 0.0316 µM, first compound 3.16 µM); 49.7% (second compound 0.0316 µM, first compound 10 µM). Moreover, the viability, T/C (second compound 0.1 µM, first compound 0.0316 µM) was 117%; the viability, T/C (second compound 0.1 µM, first compound 0.1 µM) is 82.9%; the viability, T/C (second compound 0.1 µM, first compound 0.316 µM) was 94%; the viability, T/C (second compound 0.1 µM, first compound 1 µM) was 92.2%; the viability, T/C (second compound 0.1 µM, first compound 3.16 µM) was 86.8%; the viability, T/C (second compound 0.1 µM, first compound 10 µM) was 57.2%. For the same molecule, the viability, T/C reads like this: (second compound 0.316 µM, first compound 0.0316 µM) 110%; (second compound 0.316 µM, first compound 0.1 µM) 102%; (second compound 0.316 µM, first compound 0.316 µM) 98.9%; (second compound 0.316 µM, first compound 1 µM) 89.3%; (second compound 0.316 µM, first compound 3.16 µM) 89.5%; (second compound 0.316 µM, first compound 10 µM) 60%. The viability, T/C is, setting by setting: (second compound 1 µM, first compound 0.0316 µM) 75.7%; (second compound 1 µM, first compound 0.1 µM) 87.4%; (second compound 1 µM, first compound 0.316 µM) 99.2%; (second compound 1 µM, first compound 1 µM) 87.7%; (second compound 1 µM, first compound 3.16 µM) 83.1%; (second compound 1 µM, first compound 10 µM) 43.5%. Besides, the viability, T/C is, setting by setting: (second compound 3.16 µM, first compound 0.0316 µM) 98.2%; (second compound 3.16 µM, first compound 0.1 µM) 78.3%; (second compound 3.16 µM, first compound 0.316 µM) 103%; (second compound 3.16 µM, first compound 1 µM) 80.2%; (second compound 3.16 µM, first compound 3.16 µM) 83.3%; (second compound 3.16 µM, first compound 10 µM) 34.7%. For the same molecule, the viability, T/C by setting is: (second compound 10 µM, first compound 0.0316 µM) 70.8%; (second compound 10 µM, first compound 0.1 µM) 60.3%; (second compound 10 µM, first compound 0.316 µM) 44.7%; (second compound 10 µM, first compound 1 µM) 29.6%; (second compound 10 µM, first compound 3.16 µM) 15.8%; (second compound 10 µM, first compound 10 µM) 5.05%.
